The source of these data is PMC10722324 (Heliyon, 2023).

In one data set the target is BuChE (Homo sapiens, UniProt P06276). Nature of the data set: biochemical.
The target in another data set is Aβ1–42 (Homo sapiens, UniProt P05067). Nature of the data set: biochemical. To be noted: Aβ aggregation (IC50), Aβ1-42, ThT, 37 °C 48 h, compounds 0–200 μM.
In data set [1] the test system is differentiated SH-SY5Y cells. The data set is described as follows: Toxicity screening on differentiated SH-SY5Y cells. The format is cell-based, human. As to conditions: MTT, mean ± SD (n = 5).

Sequence of Aβ1–42 (P05067 672-713): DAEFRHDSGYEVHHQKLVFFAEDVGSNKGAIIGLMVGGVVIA
Sequence of BuChE (P06276 29-602): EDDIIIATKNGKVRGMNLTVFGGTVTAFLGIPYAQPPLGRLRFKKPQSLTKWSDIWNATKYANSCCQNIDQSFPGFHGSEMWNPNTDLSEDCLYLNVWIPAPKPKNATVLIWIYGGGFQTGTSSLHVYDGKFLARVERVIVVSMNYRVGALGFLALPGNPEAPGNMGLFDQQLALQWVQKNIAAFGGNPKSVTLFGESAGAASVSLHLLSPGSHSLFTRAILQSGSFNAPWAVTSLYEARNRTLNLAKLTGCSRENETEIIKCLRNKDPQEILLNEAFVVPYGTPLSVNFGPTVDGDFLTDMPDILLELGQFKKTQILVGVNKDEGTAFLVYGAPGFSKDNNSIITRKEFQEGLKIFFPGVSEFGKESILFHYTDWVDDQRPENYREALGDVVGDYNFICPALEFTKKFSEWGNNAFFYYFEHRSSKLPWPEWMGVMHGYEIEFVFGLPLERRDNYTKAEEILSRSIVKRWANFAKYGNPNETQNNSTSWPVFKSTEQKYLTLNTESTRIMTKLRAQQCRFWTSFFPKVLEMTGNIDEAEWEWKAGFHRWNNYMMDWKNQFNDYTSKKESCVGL

As to `COc1c2ccoc2cc2oc(-c3ccccc3)cc(=O)c12` [CY2, pinnatin], the IC50 worked out at 82 ± 1.3 µM against BuChE and 195 ± 3.2 µM against Aβ1–42. For the same compound, the Cell viability in data set [1] (0.1 μM) is 96.7 ± 3.1 % control; in data set [1] (1 μM), 99.3 ± 4.7 % control; in data set [1] (10 μM), 96.1 ± 4.3 % control; in data set [1] (100 μM) it was 68.5 ± 2.2 % control.
For the compound `COc1c(C(=O)/C=C(\O)c2ccccc2)ccc2occc12` [CY3, pongamol], the results for the IC50 against BuChE and against Aβ1–42 were 102 ± 1.27 µM and above 200 µM, respectively. In addition, the Cell viability in data set [1] (0.1 μM) came out at 103.3 ± 1.4 % control; in data set [1] (1 μM) it was 103.6 ± 1.1 % control; in data set [1] (10 μM), 104.3 ± 3.8 % control; in data set [1] (100 μM), 103.1 ± 4.0 % control.
As for `COc1cc(/C=C/C(=O)CC(=O)/C=C/c2ccc(O)c(OC)c2)ccc1O` [Curcumin, reference compound], the Cell viability in data set [1] (0.1 μM) was 104.1 ± 3.2 % control; in data set [1] (1 μM) it was 100.4 ± 4.6 % control; in data set [1] (10 μM) it was 100.5 ± 7.7 % control; in data set [1] (100 μM), 79.1 ± 3.6 % control.
On Aβ1–42, `O=c1cc(-c2ccccc2)oc2c1ccc1occc12` [CY14, lanceolatin B] gave an IC50 of 106 µM. Besides, the Cell viability in data set [1] (0.1 μM) is reported as 102.4 ± 1.3 % control; in data set [1] (1 μM), 100.1 ± 2.6 % control; in data set [1] (10 μM), 97.4 ± 3.2 % control; in data set [1] (100 μM), 72.4 ± 3.4 % control.

For orientation: IC50 means the concentration that gives 50% inhibition. The low end stands for inhibition by little substance, the high end for a need for much substance.
